# Settings: buffer; pH 7.4; 200.0 µM
row,SMILES,solubility kinetic
1,CC1SCC(=O)N(CC(=O)NC2CCCCC2)C1=O (stereo not given),37.9 µg/mL
2,S=C(Nc1ccccc1)N1CCc2ccccc21,23.8 µg/mL
3,O=S(=O)(Cc1ccco1)Cc1nc(-c2ccc(Cl)cc2)cs1,0.9 µg/mL
4,COCCNC(=S)N1CCN(C/C=C/c2ccccc2)CC1,> 47.9 µg/mL
5,O=C(Nc1cc(C(F)(F)F)ccc1-n1cncn1)C1CC1,> 44.4 µg/mL
6,Cc1cc(C)cc(N2CC(C(=O)Nc3cc(C)on3)CC2=O)c1 (stereo not given),6.7 µg/mL
7,CCS(=O)c1scc(-c2ccc(Cl)cc2)c1C#N (stereo not given),20.9 µg/mL
8,CCOC(=O)c1sc(=S)n(-c2ccccc2Cl)c1C,2.7 µg/mL
9,CC1(C)CC(=O)C=C(Nc2ccc(Cl)c(Br)c2)C1,8.5 µg/mL
10,COc1ccccc1NC(=O)c1ccc(COc2ccccc2OC)cc1,3.1 µg/mL
11,CC1(C)CC2(CCO1)OC(=O)CC2C(=O)Nc1c(Cl)cccc1Cl (stereo not given),52.9 µg/mL
12,Cc1cc(=O)oc2cc(NC(=O)CC3(CC(=O)O)CCCC3)ccc12,50.2 µg/mL
13,O=C(NCc1ccc2c(c1)OCO2)Nc1ccc2nsnc2c1,2.5 µg/mL
14,O=c1[nH]c(=O)n(C2CCCCCC2)c(O)c1C=NCc1cccnc1,8.2 µg/mL
15,N#Cc1ccc(OCC(=O)NCCCn2ccnc2)cc1,> 42.6 µg/mL
16,CS(=O)(=O)N1CCN=C1SCc1ccccc1,> 40.6 µg/mL
17,CN(Cc1nc2ccccc2c(=O)[nH]1)C(=O)c1cccc(S(=O)(=O)N2CCc3ccccc32)c1,36.5 µg/mL
18,O=C(CN1C(=O)c2ccccc2C1=O)N1CCN=C1c1ccccc1,> 50 µg/mL
19,CC1(C)CC2(CCO1)C(Nc1ccccc1)=NC(=S)N2c1ccccc1 (stereo not given),< 0.3 µg/mL
20,O=C1NC2(CCCCCC2)C(=O)N1Cc1ccccc1Cl,6.8 µg/mL
21,COc1ccc([N+](=O)[O-])cc1NC(=S)NC(C)=O,2 µg/mL
22,CC1CCCN(CCS(=O)(=O)c2ccccc2)C1 (stereo not given),39.5 µg/mL

row,SMILES,solubility kinetic
1,O=C(/C=C/c1ccc([N+](=O)[O-])cc1)c1cccs1,1.6 µg/mL
2,C=CCn1c(=S)sc2c(=O)[nH]c(C)nc21,> 35.9 µg/mL
3,CCNC(=S)N1CCCC(c2nc3ccc(C)cc3[nH]2)C1 (stereo not given),> 45.4 µg/mL
4,CCOc1ccccc1/C=C(\C#N)C(=O)NC1CC1,31.3 µg/mL
5,COc1ccc(N(Cc2cc(=O)[nH]c3ccccc23)C(C)=O)cc1,> 48.4 µg/mL
6,CS(=O)(=O)N1CCN(CC(=O)NC2CCCC2)CC1,> 43.4 µg/mL
7,Cc1occc1C(=O)Nc1cccc(Cl)c1Cl,4.5 µg/mL
8,Cc1cc(C(=O)OCC(=O)NCc2ccccc2)c2ccccc2n1,13.9 µg/mL
9,N=c1oc2ccc(Cl)cc2cc1C(=O)Nc1ccc(F)cc1,1 µg/mL
10,CC1(N(O)C=C2C=CC(=O)C=C2)CCCCC1=O (stereo not given),> 37.1 µg/mL
11,CC(C)Cn1c(=O)c2c(nc3n2CCS3)n(C)c1=O,> 42.1 µg/mL
12,CN(C)CCn1cnc2ccccc21.Cl,> 39.3 µg/mL
13,COCCn1c(N)c(N(Cc2ccccc2)C(=O)Cc2ccccc2F)c(=O)[nH]c1=O,62.9 µg/mL
14,O=C(NCCCN1CCCC1)Nc1ccccc1[N+](=O)[O-],> 43.9 µg/mL
15,Cc1ccc(C(=O)NC2CCCC2)s1,29.9 µg/mL
16,Cc1ccc2c(CN(C)Cc3ccc(Cl)cc3)cc(=O)oc2c1,1.9 µg/mL
17,Cn1cccc1C1CCCN1CC(=O)Nc1c(Cl)cc(Cl)cc1Cl (stereo not given),32.5 µg/mL
18,O=C1c2ccccc2NC(c2cccc(O)c2)N1Cc1ccco1 (stereo not given),> 48.1 µg/mL
19,Cc1ccc(O)c(NC(=O)c2noc(C(C)C)c2[N+](=O)[O-])c1,40.5 µg/mL
20,CN1C2CCC1CC(NS(=O)(=O)c1ccc(C#N)cc1)C2 (stereo not given),45.6 µg/mL
21,CCCS(=O)(=O)Nc1cccc(-c2nc3cccnc3s2)c1,2.4 µg/mL
22,COc1ccc(CNc2nccs2)cc1OC,> 37.5 µg/mL

row,SMILES,solubility kinetic
1,Cc1ccc(S(=O)(=O)NC(=O)Nc2ccc(C)cn2)cc1,> 45.8 µg/mL
2,CC(C)Oc1ccc(/C=C/C(=O)NCC2COc3ccccc3O2)cc1 (stereo not given),2.8 µg/mL
3,O=C(Cc1ccc2ccccc2c1)Nc1ccccc1Br,< 0.7 µg/mL
4,CCC(=O)NC(c1ccccc1)c1c(OC(C)=O)ccc2ccccc12 (stereo not given),> 52.1 µg/mL
5,O=C(N1CCN(CCO)CC1)N1c2ccccc2CCc2ccccc21,45.9 µg/mL
6,CCCC/C(O)=C1\C(=O)CCCC1=NCCc1c(C)[nH]c2ccccc12,14.3 µg/mL
7,O=C(Nc1cccc(S(=O)(=O)N2CCOCC2)c1)c1ccc(=O)[nH]c1,> 54.5 µg/mL
8,COc1c(S(=O)(=O)N2CCN(C)CC2)ccc(Cl)c1Cl,45.6 µg/mL
9,Nc1ccc(C(=O)NC23CC4CC(CC(C4)C2)C3)cc1,37.3 µg/mL
10,Cc1ccc(CSc2ncnc3onc(C)c23)cc1,< 0.2 µg/mL
11,COc1ccc(/C=C/C(=O)N2CCNC(=O)C2)c(OC)c1,41.3 µg/mL
12,COc1ccc(C2C(C#N)=C(N)Oc3c2oc(CO)cc3=O)cc1 (stereo not given),> 48.9 µg/mL
13,CC(NC(=O)C(C)(C)C)C(c1cccs1)N1CCOCC1 (stereo not given),> 46.6 µg/mL
14,CC1CCN(CC(=O)NC2CCCCC2)CC1.Cl,37.4 µg/mL
15,O=[N+]([O-])c1ccc(COP(=O)([O-])OCc2ccc([N+](=O)[O-])cc2)cc1.[Na+],58.2 µg/mL
16,O=C(Nc1cccc2c1CCCC2)c1cccc(F)c1,< 0.6 µg/mL
17,c1ccc(-c2ccc(-c3ccncn3)cc2)cc1,< 0.2 µg/mL
18,Cc1cc(C)c(N=C2C(=O)Nc3ccccc32)c(C)c1,> 39.6 µg/mL
19,CCOC(=O)c1sc(/N=C/c2c(O)ccc3ccccc23)cc1C,9.8 µg/mL
20,COc1ccc(-c2nc3n(c(=O)c2C#N)CCS3)cc1OC,11.9 µg/mL
21,Cc1cccc(C(=O)N[C@@H](C)C(=O)N2CCN(c3ncccn3)CC2)c1,> 53 µg/mL
22,CCN(Cc1ccncc1)C(=O)Cc1cccs1,> 39.1 µg/mL

row,SMILES,solubility kinetic
1,CC(=O)N(Nc1ccccc1)c1ccccc1,> 33.9 µg/mL
2,Cc1cc([N+](=O)[O-])nn1CCCC(=O)NC1CCCCC1,> 44.2 µg/mL
3,COc1ccc(NC(=O)CNc2cc(S(=O)(=O)N3CCOCC3)ccc2N2CCOCC2)c(OC)c1,4.2 µg/mL
4,COc1ccc(NC(=O)Nc2c[nH]c(=O)[nH]c2=O)cc1OC,44.8 µg/mL
5,Cc1cccc(C)c1NC(=O)CN(C)C(=O)Cn1c(=O)cnc2ccccc21,52.6 µg/mL
6,C=CCn1c(O)c(C(CC)=NCc2ccc3c(c2)OCO3)c(=O)[nH]c1=O,3 µg/mL
7,COc1cc([N+](=O)[O-])ccc1N1C(=O)CC(Sc2nccc(C)n2)C1=O (stereo not given),> 56.2 µg/mL
8,COc1ccccc1NC(=S)NCc1ccccc1Cl,1.3 µg/mL
9,CSCCC(NS(=O)(=O)c1ccc(C)cc1C)C(=O)Nc1cccnc1 (stereo not given),> 59 µg/mL
10,Cc1nc2cc(NS(=O)(=O)c3cccc(F)c3)ccc2s1,> 48.4 µg/mL
11,Cc1ccc(CC(=O)Nc2nccs2)cc1C,3.3 µg/mL
12,COc1ccc(Br)cc1/C=C/C(=O)NCC(=O)O,> 47.1 µg/mL
13,CSc1ccccc1C(=O)Nc1ccccc1C(=O)NC(C)C,> 49.3 µg/mL
14,NS(=O)(=O)c1ccc(CCNC(=O)Cc2ccc(Cl)cc2)cc1,> 52.9 µg/mL
15,COc1ccc2nc3oc(C(=O)NCCCOC(C)C)cc3cc2c1,12 µg/mL
16,O=C(COC(=O)c1cccs1)Nc1ccc(Cl)cn1,3.1 µg/mL
17,CCOc1ccc(NC(=O)COC(=O)C2CC2C)cc1 (stereo not given),> 41.6 µg/mL
18,C=CCOc1cccc(CNCc2ccncc2)c1,28 µg/mL
19,CC(=O)c1cn(N2CCCCC2)c(=O)[nH]c1=O,> 35.6 µg/mL
